# Measured values as given in PubChem BioAssay (NCI).
#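 Briefly, cells in 96-well plates were exposed to five compound concentrations for 48 h, and endpoints were estimated by linear interpolation. GI50: concentration for 50% inhibition of growth. TGI is the concentration that stops growth completely.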
# What was measured:
# Assay in all cases: NCI tumour cell line growth inhibition, 48 h
# MALME-3M melanoma = tested on: MALME-3M melanoma
# 786-0 renal = tested on: 786-0 renal
# A498 renal = tested on: A498 renal
# DU-145 prostate = tested on: DU-145 prostate
# SR leukemia = tested on: SR leukemia
# T-47D breast = tested on: T-47D breast
# CCRF-CEM leukemia = tested on: CCRF-CEM leukemia
# M14 melanoma = tested on: M14 melanoma
# SF-295 CNS = tested on: SF-295 CNS
# EKVX NSCLC = tested on: EKVX NSCLC
# K-562 leukemia = tested on: K-562 leukemia
# MDA-MB-435 = tested on: MDA-MB-435
# PC-3 prostate = tested on: PC-3 prostate
# UACC-257 melanoma = tested on: UACC-257 melanoma
# RPMI-8226 leukemia = tested on: RPMI-8226 leukemia
# OVCAR-3 ovarian = tested on: OVCAR-3 ovarian
# NCI-H460 lung = tested on: NCI-H460 lung
# CAKI-1 renal = tested on: CAKI-1 renal
# MCF7 breast = tested on: MCF7 breast
# HCC-2998 colon = tested on: HCC-2998 colon
# HT29 colon = tested on: HT29 colon
# MDA-MB-231 breast = tested on: MDA-MB-231 breast
# NCI-H226 lung = tested on: NCI-H226 lung
# U251 CNS = tested on: U251 CNS
# SK-MEL-2 melanoma = tested on: SK-MEL-2 melanoma
# RXF 393 renal = tested on: RXF 393 renal
# UACC-62 melanoma = tested on: UACC-62 melanoma
# SK-OV-3 ovarian = tested on: SK-OV-3 ovarian
# TK-10 renal = tested on: TK-10 renal
# A549 NSCLC = tested on: A549 NSCLC
# SNB-19 CNS = tested on: SNB-19 CNS
# COLO 205 colon = tested on: COLO 205 colon
# SF-539 CNS = tested on: SF-539 CNS
# UO-31 renal = tested on: UO-31 renal
# SNB-75 CNS = tested on: SNB-75 CNS
# HOP-62 NSCLC = tested on: HOP-62 NSCLC
# HCT-116 colon = tested on: HCT-116 colon
# NCI-H522 lung = tested on: NCI-H522 lung
# SK-MEL-5 melanoma = tested on: SK-MEL-5 melanoma
# ACHN renal = tested on: ACHN renal
# MDA-MB-468 breast = tested on: MDA-MB-468 breast
# LOX IMVI melanoma = tested on: LOX IMVI melanoma
# NCI-H23 lung = tested on: NCI-H23 lung
# KM12 colon = tested on: KM12 colon
# BT-549 breast = tested on: BT-549 breast
# HOP-92 NSCLC = tested on: HOP-92 NSCLC
# HL-60(TB) leukemia = tested on: HL-60(TB) leukemia
# IGROV1 ovarian = tested on: IGROV1 ovarian
# SK-MEL-28 melanoma = tested on: SK-MEL-28 melanoma
# OVCAR-5 ovarian = tested on: OVCAR-5 ovarian
# NCI/ADR-RES ovarian = tested on: NCI/ADR-RES ovarian
# HCT-15 colon = tested on: HCT-15 colon
# MOLT-4 leukemia = tested on: MOLT-4 leukemia
# OVCAR-8 ovarian = tested on: OVCAR-8 ovarian
# HS 578T breast = tested on: HS 578T breast
# SN12C renal = tested on: SN12C renal
# SF-268 CNS = tested on: SF-268 CNS
# OVCAR-4 ovarian = tested on: OVCAR-4 ovarian
# SW-620 colon = tested on: SW-620 colon
smiles,measurement,setting,value
O=C(N/N=C/c1ccc(Br)o1)c1[nH]c2ccc(Br)cc2c1-c1ccccc1,GI50,MALME-3M melanoma,480 nM
same,TGI,MALME-3M melanoma,47500 nM
same,GI50,786-0 renal,397 nM
same,TGI,786-0 renal,6150 nM
same,GI50,A498 renal,23600 nM
same,TGI,A498 renal,> 69600 nM
same,GI50,DU-145 prostate,391 nM
same,TGI,DU-145 prostate,14700 nM
same,GI50,SR leukemia,345 nM
same,TGI,SR leukemia,22400 nM
same,GI50,T-47D breast,4180 nM
same,TGI,T-47D breast,> 100000 nM
same,GI50,CCRF-CEM leukemia,311 nM
same,TGI,CCRF-CEM leukemia,17900 nM
same,GI50,M14 melanoma,351 nM
same,TGI,M14 melanoma,30200 nM
same,GI50,SF-295 CNS,353 nM
same,TGI,SF-295 CNS,> 38600 nM
same,GI50,EKVX NSCLC,539 nM
same,TGI,EKVX NSCLC,59900 nM
same,GI50,K-562 leukemia,339 nM
same,TGI,K-562 leukemia,> 44500 nM
same,GI50,MDA-MB-435,216 nM
same,TGI,MDA-MB-435,567 nM
same,GI50,PC-3 prostate,398 nM
same,TGI,PC-3 prostate,> 53800 nM
same,GI50,UACC-257 melanoma,2690 nM
same,TGI,UACC-257 melanoma,> 100000 nM
same,GI50,RPMI-8226 leukemia,415 nM
same,TGI,RPMI-8226 leukemia,> 100000 nM
same,GI50,OVCAR-3 ovarian,415 nM
same,TGI,OVCAR-3 ovarian,17100 nM
same,GI50,NCI-H460 lung,326 nM
same,TGI,NCI-H460 lung,10800 nM
same,GI50,CAKI-1 renal,424 nM
same,TGI,CAKI-1 renal,24200 nM
same,GI50,MCF7 breast,341 nM
same,TGI,MCF7 breast,> 100000 nM
same,GI50,HCC-2998 colon,385 nM
same,TGI,HCC-2998 colon,18500 nM
same,GI50,HT29 colon,298 nM
same,TGI,HT29 colon,2980 nM
same,GI50,MDA-MB-231 breast,352 nM
same,TGI,MDA-MB-231 breast,12300 nM
same,GI50,NCI-H226 lung,511 nM
same,TGI,NCI-H226 lung,6320 nM
same,GI50,U251 CNS,337 nM
same,TGI,U251 CNS,16900 nM
same,GI50,SK-MEL-2 melanoma,407 nM
same,TGI,SK-MEL-2 melanoma,> 100000 nM
same,GI50,RXF 393 renal,443 nM
same,TGI,RXF 393 renal,21400 nM
same,GI50,UACC-62 melanoma,395 nM
same,TGI,UACC-62 melanoma,> 76500 nM
same,GI50,SK-OV-3 ovarian,731 nM
same,TGI,SK-OV-3 ovarian,> 65400 nM
same,GI50,TK-10 renal,5310 nM
same,TGI,TK-10 renal,> 46500 nM
same,GI50,A549 NSCLC,383 nM
same,TGI,A549 NSCLC,28700 nM
same,GI50,SNB-19 CNS,455 nM
same,TGI,SNB-19 CNS,> 81800 nM
same,GI50,COLO 205 colon,227 nM
same,TGI,COLO 205 colon,482 nM
same,GI50,SF-539 CNS,226 nM
same,TGI,SF-539 CNS,562 nM
same,GI50,UO-31 renal,679 nM
same,TGI,UO-31 renal,28800 nM
same,GI50,SNB-75 CNS,464 nM
same,TGI,SNB-75 CNS,22800 nM
same,GI50,HOP-62 NSCLC,565 nM
same,TGI,HOP-62 NSCLC,27400 nM
same,GI50,HCT-116 colon,311 nM
same,TGI,HCT-116 colon,4210 nM
same,GI50,NCI-H522 lung,177 nM
same,TGI,NCI-H522 lung,549 nM
same,GI50,SK-MEL-5 melanoma,204 nM
same,TGI,SK-MEL-5 melanoma,424 nM
same,GI50,ACHN renal,504 nM
same,TGI,ACHN renal,40100 nM
same,GI50,MDA-MB-468 breast,228 nM
same,TGI,MDA-MB-468 breast,585 nM
same,GI50,LOX IMVI melanoma,336 nM
same,TGI,LOX IMVI melanoma,16300 nM
same,GI50,NCI-H23 lung,393 nM
same,TGI,NCI-H23 lung,29300 nM
same,GI50,KM12 colon,352 nM
same,TGI,KM12 colon,> 44500 nM
same,GI50,BT-549 breast,379 nM
same,TGI,BT-549 breast,2130 nM
same,GI50,HOP-92 NSCLC,1140 nM
same,TGI,HOP-92 NSCLC,32700 nM
same,GI50,HL-60(TB) leukemia,235 nM
same,TGI,HL-60(TB) leukemia,690 nM
same,GI50,IGROV1 ovarian,421 nM
same,TGI,IGROV1 ovarian,> 46700 nM
same,GI50,SK-MEL-28 melanoma,1120 nM
same,TGI,SK-MEL-28 melanoma,46900 nM
same,GI50,OVCAR-5 ovarian,372 nM
same,TGI,OVCAR-5 ovarian,22000 nM
same,GI50,NCI/ADR-RES ovarian,231 nM
same,TGI,NCI/ADR-RES ovarian,583 nM
same,GI50,HCT-15 colon,353 nM
same,TGI,HCT-15 colon,23900 nM
same,GI50,MOLT-4 leukemia,431 nM
same,TGI,MOLT-4 leukemia,> 38200 nM
same,GI50,OVCAR-8 ovarian,297 nM
same,TGI,OVCAR-8 ovarian,2830 nM
same,GI50,HS 578T breast,323 nM
same,TGI,HS 578T breast,12800 nM
same,GI50,SN12C renal,377 nM
same,TGI,SN12C renal,14200 nM
same,GI50,SF-268 CNS,861 nM
same,TGI,SF-268 CNS,> 52900 nM
same,GI50,OVCAR-4 ovarian,5390 nM
same,TGI,OVCAR-4 ovarian,> 53300 nM
same,GI50,SW-620 colon,374 nM
same,TGI,SW-620 colon,22900 nM
